Activity calls are given as the source filed them. The rule behind the calls is not given here.
Test system: CCRIS mutagenicity, Ames/micronucleus/aberration tests
Test: CCRIS mutagenicity studies
[1] = Test System: AMES SALMONELLA TYPHIMURIUM, Strain/Indicator: TA97, Metabolic Activation: HAMSTER, LIVER, S-9, AROCLOR 1254 (10%), Method: PREINCUBATION
[2] = Test System: AMES SALMONELLA TYPHIMURIUM, Strain/Indicator: TA97, Metabolic Activation: HAMSTER, LIVER, S-9, AROCLOR 1254 (30%), Method: PREINCUBATION
[3] = Test System: AMES SALMONELLA TYPHIMURIUM, Strain/Indicator: TA97, Metabolic Activation: NONE, Method: PREINCUBATION
[4] = Test System: AMES SALMONELLA TYPHIMURIUM, Strain/Indicator: TA97, Metabolic Activation: RAT, LIVER, S-9, AROCLOR 1254 (10%), Method: PREINCUBATION
[5] = Test System: AMES SALMONELLA TYPHIMURIUM, Strain/Indicator: TA97, Metabolic Activation: RAT, LIVER, S-9, AROCLOR 1254 (30%), Method: PREINCUBATION
[6] = Test System: AMES SALMONELLA TYPHIMURIUM, Strain/Indicator: TA98, Metabolic Activation: NONE, Method: PREINCUBATION
[7] = Test System: AMES SALMONELLA TYPHIMURIUM, Strain/Indicator: TA100, Metabolic Activation: HAMSTER, LIVER, S-9, AROCLOR 1254 (30%), Method: PREINCUBATION
[8] = Test System: AMES SALMONELLA TYPHIMURIUM, Strain/Indicator: TA100, Metabolic Activation: NONE, Method: PREINCUBATION
[9] = Test System: AMES SALMONELLA TYPHIMURIUM, Strain/Indicator: TA100, Metabolic Activation: RAT, LIVER, S-9, AROCLOR 1254 (30%), Method: PREINCUBATION
[10] = Test System: AMES SALMONELLA TYPHIMURIUM, Strain/Indicator: TA1535, Metabolic Activation: NONE, Method: PREINCUBATION
[11] = Test System: AMES SALMONELLA TYPHIMURIUM, Strain/Indicator: TA98, Metabolic Activation: HAMSTER, LIVER, S-9, AROCLOR 1254 (10%), Method: PREINCUBATION
[12] = Test System: AMES SALMONELLA TYPHIMURIUM, Strain/Indicator: TA98, Metabolic Activation: HAMSTER, LIVER, S-9, AROCLOR 1254 (30%), Method: PREINCUBATION
[13] = Test System: AMES SALMONELLA TYPHIMURIUM, Strain/Indicator: TA98, Metabolic Activation: RAT, LIVER, S-9, AROCLOR 1254 (10%), Method: PREINCUBATION
[14] = Test System: AMES SALMONELLA TYPHIMURIUM, Strain/Indicator: TA98, Metabolic Activation: RAT, LIVER, S-9, AROCLOR 1254 (30%), Method: PREINCUBATION
[15] = Test System: AMES SALMONELLA TYPHIMURIUM, Strain/Indicator: TA100, Metabolic Activation: HAMSTER, LIVER, S-9, AROCLOR 1254 (10%), Method: PREINCUBATION
[16] = Test System: AMES SALMONELLA TYPHIMURIUM, Strain/Indicator: TA100, Metabolic Activation: RAT, LIVER, S-9, AROCLOR 1254 (10%), Method: PREINCUBATION
[17] = Test System: AMES SALMONELLA TYPHIMURIUM, Strain/Indicator: TA1535, Metabolic Activation: HAMSTER, LIVER, S-9, AROCLOR 1254 (10%), Method: PREINCUBATION
[18] = Test System: AMES SALMONELLA TYPHIMURIUM, Strain/Indicator: TA1535, Metabolic Activation: HAMSTER, LIVER, S-9, AROCLOR 1254 (30%), Method: PREINCUBATION
[19] = Test System: AMES SALMONELLA TYPHIMURIUM, Strain/Indicator: TA1535, Metabolic Activation: RAT, LIVER, S-9, AROCLOR 1254 (10%), Method: PREINCUBATION
[20] = Test System: AMES SALMONELLA TYPHIMURIUM, Strain/Indicator: TA1535, Metabolic Activation: RAT, LIVER, S-9, AROCLOR 1254 (30%), Method: PREINCUBATION

| SMILES | mutagenic call [1] | mutagenic call [2] | mutagenic call [3] | mutagenic call [4] | mutagenic call [5] | mutagenic call [6] | mutagenic call [7] | mutagenic call [8] | mutagenic call [9] | mutagenic call [10] | mutagenic call [11] | mutagenic call [12] | mutagenic call [13] | mutagenic call [14] | mutagenic call [15] | mutagenic call [16] | mutagenic call [17] | mutagenic call [18] | mutagenic call [19] | mutagenic call [20] | other results |
| --- | --- | --- | --- | --- | --- | --- | --- | --- | --- | --- | --- | --- | --- | --- | --- | --- | --- | --- | --- | --- | --- |
| CCC1NC(=O)c2cc(S(N)(=O)=O)c(Cl)cc2N1 (centres undefined) | inactive; negative | inactive; negative | inactive; negative | inactive; negative | inactive; negative | inactive; negative | inactive; negative | inactive; negative | inactive; negative | inactive; negative | – | – | – | – | – | – | – | – | – | – | mutagenic call (Test System: AMES SALMONELLA TYPHIMURIUM, Strain/Indicator: TA98, Metabolic Activation: HAMSTER, LIVER, S-9, AROCLOR 1254 (10 OR 30%), Method: PREINCUBATION): inactive; negative; mutagenic call (Test System: AMES SALMONELLA TYPHIMURIUM, Strain/Indicator: TA98, Metabolic Activation: RAT, LIVER, S-9, AROCLOR 1254 (10 OR 30%), Method: PREINCUBATION): inactive; negative; mutagenic call (Test System: AMES SALMONELLA TYPHIMURIUM, Strain/Indicator: TA100, Metabolic Activation: HAMSTER, LIVER, S-9, AROCLOR 1254 (5 OR 10%), Method: PREINCUBATION): inactive; negative; mutagenic call (Test System: AMES SALMONELLA TYPHIMURIUM, Strain/Indicator: TA100, Metabolic Activation: RAT, LIVER, S-9, AROCLOR 1254 (5 OR 10%), Method: PREINCUBATION): inactive; negative; mutagenic call (Test System: AMES SALMONELLA TYPHIMURIUM, Strain/Indicator: TA1535, Metabolic Activation: HAMSTER, LIVER, S-9, AROCLOR 1254 (10 OR 30%), Method: PREINCUBATION): inactive; negative; mutagenic call (Test System: AMES SALMONELLA TYPHIMURIUM, Strain/Indicator: TA1535, Metabolic Activation: RAT, LIVER, S-9, AROCLOR 1254 (10 OR 30%), Method: PREINCUBATION): inactive; negative |
| O=NN(CCCl)C(=O)NCCO | – | – | – | – | – | – | – | – | – | – | – | – | – | – | – | – | – | – | – | – | mutagenic call (Test System: AMES SALMONELLA TYPHIMURIUM, Strain/Indicator: TA1535, Metabolic Activation: NONE, Method: STANDARD PLATE): active; positive |
| Oc1c(Cl)c(Cl)cc(Cl)c1Cl | inactive; negative | inactive; negative | inactive; negative | inactive; negative | inactive; negative | inactive; negative | inactive; negative | inactive; negative | inactive; negative | inactive; negative | inactive; negative | inactive; negative | inactive; negative | inactive; negative | inactive; negative | inactive; negative | inactive; negative | inactive; negative | inactive; negative | inactive; negative | mutagenic call (End Point: IN VITRO CHROMOSOMAL ABERRATIONS, Test System: CHINESE HAMSTER LUNG CELLS (CHL), Metabolic Activation: NONE): inactive; negative; mutagenic call (End Point: IN VITRO CHROMOSOMAL ABERRATIONS, Test System: CHINESE HAMSTER LUNG CELLS (CHL), Metabolic Activation: RAT, LIVER, S-9, KC-400): active; positive (structural changes); mutagenic call (End Point: IN VITRO CHROMOSOMAL ABERRATIONS, Test System: CHINESE HAMSTER OVARY CELLS (CHO), Metabolic Activation: NONE): inactive; negative; mutagenic call (End Point: IN VITRO CHROMOSOMAL ABERRATIONS, Test System: CHINESE HAMSTER OVARY CELLS (CHO), Metabolic Activation: RAT, LIVER, S-9, AROCLOR 1254): active; positive (structural changes) |
| CC(=O)Nc1ccc2c(ccc3ccccc32)c1 | – | – | – | – | – | – | – | – | – | – | – | – | – | – | – | – | – | – | – | – | mutagenic call (Test System: CHINESE HAMSTER OVARY, Strain/Indicator: AS52/6-THIOGUANINE, Metabolic Activation: NONE): inactive; negative; mutagenic call (Test System: CHINESE HAMSTER OVARY, Strain/Indicator: AS52/6-THIOGUANINE, Metabolic Activation: RAT LIVER S-9, 2-ACETYLAMINOFLUORINE): active; positive |
| CCCCCCCCCCCC[S][Sn]([CH2]CCC)([CH2]CCC)[S]CCCCCCCCCCCC | inactive; negative | inactive; negative | inactive; negative | inactive; negative | inactive; negative | inactive; negative | inactive; negative | inactive; negative | inactive; negative | inactive; negative | inactive; negative | inactive; negative | inactive; negative | inactive; negative | inactive; negative | inactive; negative | inactive; negative | inactive; negative | inactive; negative | inactive; negative | – |
| Cc1ccc2c(c1)c(=NC(=O)c1cccc([N+](=O)[O-])c1)sn2C(=O)c1cccc([N+](=O)[O-])c1 | – | – | – | – | – | – | – | – | – | – | – | – | – | – | – | – | – | – | – | – | mutagenic call (Test System: AMES SALMONELLA TYPHIMURIUM, Strain/Indicator: TA100, Metabolic Activation: S-9, Method: STANDARD PLATE): active; positive |

— PubChem BioAssay AID1259407 (Chemical Carcinogenesis Research Information System (CCRIS), 2018)
